The results in this text go back to US20120157499A1, “DELIVERY OF AN ACTIVE DRUG TO THE POSTERIOR PART OF THE EYE VIA SUBCONJUNCTIVAL OR PERIOCULAR DELIVERY OF A PRODRUG” (Allergan, Inc., priority 2003, published 2012).

Molecules are shown by their SMILES.

The nature of data set [1]: Subconjunctival injection into a patient suffering from retinitis pigmentosa. Format: in vivo. Particulars: 1 mg in poly(lactide-co-glycolide) microsphere suspension, injected subconjunctivally. The method, then:
A dose of tazarotene (1 mg) contained in the poly(lactide-co-glycolide) microsphere suspension of Example containing 1 is injected subconjunctivally into a patient suffering from retinitis pigmentosa.
A dose of all-trans retinyl palmitate (1 mg) contained in the poly(lactide-co-glycolide) microsphere suspension of Example containing 1 is injected subconjunctivally into a patient suffering from retinitis pigmentosa.

Data set [2] can be described thus: Subconjunctival injection into a patient suffering from proliferative vitreal retinopathy. Format: in vivo. The following applies: 1 mg in poly(lactide-co-glycolide) microsphere suspension, injected subconjunctivally. The method, then: A dose of tazarotene (1 mg) contained in the poly(lactide-co-glycolide) microsphere suspension of Example containing 1 is injected subconjunctivally into a patient suffering from proliferative vitreal retinopathy.

The target in the next data set is T1, RARγ (Homo sapiens, UniProt P13631).
T1 construct: made in house
T1 sequence (P13631 1-454): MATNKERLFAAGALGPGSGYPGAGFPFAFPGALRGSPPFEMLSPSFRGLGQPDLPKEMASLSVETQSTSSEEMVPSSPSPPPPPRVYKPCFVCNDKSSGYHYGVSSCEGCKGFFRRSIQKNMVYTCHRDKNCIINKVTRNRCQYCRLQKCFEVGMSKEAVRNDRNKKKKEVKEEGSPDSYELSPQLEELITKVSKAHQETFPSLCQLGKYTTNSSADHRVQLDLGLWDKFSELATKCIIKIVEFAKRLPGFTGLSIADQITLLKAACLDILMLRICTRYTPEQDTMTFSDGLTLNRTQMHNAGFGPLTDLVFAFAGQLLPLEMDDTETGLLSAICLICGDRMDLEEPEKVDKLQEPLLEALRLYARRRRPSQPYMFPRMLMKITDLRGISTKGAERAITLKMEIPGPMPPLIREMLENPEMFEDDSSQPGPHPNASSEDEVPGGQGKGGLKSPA
Briefly: RARγ receptor binding assay, competition with [3H] retinoic acid. Particulars: Baculovirus-expressed receptor; Kd from IC50 by Cheng-Prussof; mean and standard deviation; read-out: receptor affinity (KD), RARγ. The method, then: (§1) The binding of tazarotene and tazarotenic acid to the retinoic acid receptor (RAR) family receptors (RARα, RARβ, RARγ) was determined as follows.
(§2) All binding assays were performed in a similar fashion. All three receptor subtypes were derived from the expressed receptor type (RARα, RARβ, and RARγ) expressed in Baculovirus. Stock solutions of the compounds were prepared as 10 mM ethanol solutions and serial dilutions carried out into 1:1 DMSO; ethanol. Assay buffers consisted of the following for all six receptor assays: 8% glycerol, 120 mM KCl, 8 mM Tris, 5 mM CHAPS 4 mM DTT and 0.24 mM PMSF, pH-7.4 @ room temperature.
(§3) All receptor binding assays were performed in the same manner. […] The amount of receptor-ligand complex was determined by liquid scintillation counting of hydroxyapitite pellet.
(§4) After correcting for non-specific binding, IC50 values were determined. […] The IC50 value was determined graphically from a loglogit plot of the data. The […] were determined by application of the Cheng-Prussof equation to the IC50 values, the labeled ligand concentration and the Kd of the labeled ligand.
(§5) The results of ligand binding assay are expressed in Kd numbers. […] Binding data for tazarotenic acid is expressed as the mean and standard deviation. […]

The next data set deals with T2, RARα (Homo sapiens, UniProt P10276).
T2 construct: made in house
T2 sequence (P10276 1-462): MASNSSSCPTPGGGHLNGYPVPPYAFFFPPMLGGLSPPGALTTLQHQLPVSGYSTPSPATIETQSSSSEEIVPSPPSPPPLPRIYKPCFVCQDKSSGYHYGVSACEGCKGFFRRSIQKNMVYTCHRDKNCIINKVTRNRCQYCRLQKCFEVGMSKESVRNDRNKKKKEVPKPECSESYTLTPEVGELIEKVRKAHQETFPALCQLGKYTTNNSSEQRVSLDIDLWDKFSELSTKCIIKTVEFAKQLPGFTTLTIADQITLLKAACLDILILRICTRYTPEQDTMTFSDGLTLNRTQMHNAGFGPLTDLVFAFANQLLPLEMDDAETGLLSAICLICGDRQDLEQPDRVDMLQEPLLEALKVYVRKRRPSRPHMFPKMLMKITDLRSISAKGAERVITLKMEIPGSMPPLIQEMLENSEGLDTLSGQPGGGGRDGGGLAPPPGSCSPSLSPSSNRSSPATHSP
Kind of data set: RARα receptor binding assay, competition with [3H] retinoic acid. Particulars: Baculovirus-expressed receptor; Kd from IC50 by Cheng-Prussof; mean and standard deviation; read-out: receptor affinity (KD), RARα. The method, then:
All binding assays were performed in a similar fashion.
All receptor binding assays were performed in the same manner. […] Incubations were carried out at 4° C. until equilibrium was achieved. Non-specific binding was defined as that binding remaining in the presence of 1000 nM of the appropriate unlabeled retinoic acid isomer. […] The mixture was vortexed and incubated for 10 minutes at 4° C., centrifuged and the supernatant removed. The hydroxyapitite was washed three more times with the appropriate wash buffer. The receptor-ligand complex was adsorbed by the hydroxyapitite. The amount of receptor-ligand complex was determined by liquid scintillation counting of hydroxyapitite pellet.
as §4
The results of ligand binding assay are expressed in Kd numbers.

For a further data set, the target named is T3, RARβ (Homo sapiens, UniProt P10826).
T3 construct: made in house
T3 sequence (P10826 1-455): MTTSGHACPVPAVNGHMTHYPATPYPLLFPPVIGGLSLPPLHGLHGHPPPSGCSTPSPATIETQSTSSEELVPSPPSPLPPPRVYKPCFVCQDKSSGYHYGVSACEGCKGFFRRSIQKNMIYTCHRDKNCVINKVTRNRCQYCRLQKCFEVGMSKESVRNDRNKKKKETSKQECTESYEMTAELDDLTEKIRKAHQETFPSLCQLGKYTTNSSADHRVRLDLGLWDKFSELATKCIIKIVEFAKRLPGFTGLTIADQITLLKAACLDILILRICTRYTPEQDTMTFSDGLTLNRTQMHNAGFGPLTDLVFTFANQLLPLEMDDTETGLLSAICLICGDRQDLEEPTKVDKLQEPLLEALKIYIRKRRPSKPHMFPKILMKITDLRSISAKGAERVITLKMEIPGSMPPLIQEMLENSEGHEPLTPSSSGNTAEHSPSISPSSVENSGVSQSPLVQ
Briefly: RARβ receptor binding assay, competition with [3H] retinoic acid. The following applies: Baculovirus-expressed receptor; Kd from IC50 by Cheng-Prussof; mean and standard deviation; read-out: receptor affinity (KD), RARβ. The method, then: as §1, §2, §3, §4, §5

A short description of data set [3]: Ocular disposition of tazarotene and tazarotenic acid after intraocular and subconjunctival administration of tazarotene. It is filed as in vivo. The following applies: albino rabbits. The method, then: General disposition of tazarotene and tazarotenic acid resulting from intraocular and subconjunctival administration of tazarotene was assessed. Albino rabbits were dosed via intraocular injection with 1.25 μg of tazarotene. Injection was made mid-vitreous. After dosing the vitreous, retina and aqueous humor concentrations of tazarotene and tazarotenic acid were determined at 0.5, 1, 2, 4, 8, 12 and 24 hours post dosing.
Tazarotene was also dosed in the subconjunctival space. Three dosage forms were evaluated: the tazarotene aqueous suspension described in Example 2 (50 μl of the solution, 1 mg tazarotene), tazarotene olive oil solution described in Example 3 (50 μl mg of the solution, 1 mg of tazarotene), and the tazarotene poly(lactide-co-glycolide) microsphere suspension described in Example 1. After dosing, the vitreous, retina and aqueous humor concentrations of tazarotene and tazarotenic acid were determined at 2, 8, 24, 48, 96, 168 and 336 hours post dosing (see FIGS. 1-8). […] In Table 1 the mean vitreous concentration refers to average vitreous concentration observed from zero to one hundred sixty-eight hours post dosing. The mean vitreous concentration at each time point was used to calculate the overall vitreous mean concentration over the 168 hours for a given route of administration and dosage form. […]

For the molecule `CCCCCCCCCCCCCCCC(=O)OC/C=C(C)/C=C/C=C(C)/C=C/C1=C(C)CCCC1(C)C` [all-trans retinyl palmitate], the “effect on vision, retinitis pigmentosa” value in data set [1] was “Maintenance of vision or a slowing of the progression of vision loss is observed”.
For `CCOC(=O)c1ccc(C#Cc2ccc3c(c2)C(C)(C)CCS3)nc1` [tazarotene, ethyl 6-[(4,4-dimethylthiochroman-6-yl)ethynyl]nicotinate], the “effect on traction retinal detachment, proliferative vitreal retinopathy” value in data set [2] is “Traction retinal detachment is prevented or the rate of traction retinal detachment is reduced”. Besides, in data set [1], the “effect on vision, retinitis pigmentosa” value is listed as “Maintenance of vision or a slowing of the progression of vision loss is observed”.
What is called Kd is the free concentration of one partner at which half of the binding sites on the other are occupied at equilibrium, for simple one-to-one binding. On to `CC1(C)CCSc2ccc(C#Cc3ccc(C(=O)O)cn3)cc21` [tazarotenic acid, 4,4-dimethyl-6-[2′-(5″-carboxy-2″-pyridyl)-ethynyl]-thiochroman], for which the dissociation constant (Kd) on RARγ amounted to 353 ± 37 nM; at RARα it was 901 ± 123 nM; on RARβ, 164 ± 48 nM. Moreover, the “maximal vitreous concentration of tazarotenic acid obtainable after direct intraocular implantation” value in data set [3] (intraocular tazarotene) came to 10 ng/mL. Further, the “period for which concentrations were maintained at low effective levels” value in data set [3] (subconjunctival dosing of tazarotene, ocular tissues) is 336 h.
